Reference: patent US20210196724A1, “BIARYL COMPOSITIONS AND METHODS FOR MODULATING A KINASE CASCADE” (Athenex, Inc., priority 2016, published 2021)
Read-outs that look alike come from different tables or passages of the source.

How the values were obtained:
TJ905 cells = test: CellTiter-Glo cell viability, TJ905; assay type: cell-based; details: 72 h; for GI50: read-out: Absolute GI50; for IC50: read-out: Absolute IC50
Protocol: (§1) The cell viability of 50 cancer cell lines was studied after treatment with Compound 121. Inhibition concentration values at 50% (IC50) were determined using CellTiter-Glo luminescent cell viability assay after incubation with different compound concentrations. GI50 values were determined according to the examples described above. Each cell line was treated with Compound 121, a standard chemotherapy drug as a reference control, and culture medium as a vehicle control.
(§2) All cells were cultured in media supplemented with 10-15% FBS at 37° C. in the presence of 5% CO2 and at 95% humidity. The culture medium was purchased from GIBCO or Sigma, USA. Cisplatin was chosen as the reference control and purchased from Hospira Australia Pty Ltd. The cell lines studied are presented in Table 5.
(§3) Cells were harvested during a logarithmic growth period and cell number count was determined using Count-star. Cell concentrations were adjusted to 4.44×10^4 cells/mL with respective culture medium. 90 μL of cell suspensions were added to two 96-well plates (plates A and B) with a final cell density of 4×10^3 cells/well.
(§4) 10 μL of culture medium was added to each well of plate A for TO reading. The plate was allowed to equilibrate at room temperature for approximately 30 min. 50 μL of CellTiter-Glo was added to each well and the contents were mixed for 5 min on an orbital shaker to induce cell lysis. The plate was allowed to incubate at room temperature for 20 min to stabilize luminescent signal.
(§5) 10 μM Compound 121 in media was serially diluted 3.16-fold to achieve 9 dose levels. Similarly, 100 μM reference control in media was serially diluted 3.16-fold to prepare reference control solutions. 10 μL drug solution and 10 μL of reference control was dispensed into each well in plate B.
(§6) Test plate B was incubated for 72 h in a humidified incubator at 37° C. in the presence of 5% CO2 and then subjected to CTG assay. The plate was allowed to equilibrate at room temperature for about 30 min. 50 μL of CellTiter-Glo was added to each well and the contents were mixed for 5 min on an orbital shaker to induce cell lysis. The plate was allowed to incubate at room temperature for 20 min to stabilize luminescent signal.
(§7) IC50 and GI50 values for each of the 50 cell lines are presented in Table 6 and were calculated based on the dose-response curves depicted in FIGS. 1-50. The dose-response curves were fitted using nonlinear regression model with a sigmoidal dose response. The formula for calculating survival rate was calculated by the formula:
(§8) Survival rate (%)=(LumTest article−LumMedium control)/(LumNone treated−LumMedium control)×100.

JEG-3 cells = test: CellTiter-Glo cell viability, JEG-3; assay type: cell-based; details: 72 h; for GI50: read-out: Absolute GI50; for IC50: read-out: Absolute IC50
Protocol: as §1, §2, §3, §4, §5, §6, §7, §8

JHH-5 cells = test: CellTiter-Glo cell viability, JHH-5; assay type: cell-based; details: 72 h; for GI50: read-out: Absolute GI50; for IC50: read-out: Absolute IC50
Protocol: as §1, §2, §3, §4, §5, §6, §7, §8

SK-OV-3 cells = test: CellTiter-Glo cell viability, SK-OV-3; assay type: cell-based; details: 72 h; for GI50: read-out: Absolute GI50; for IC50: read-out: Absolute IC50
Protocol: as §1, §2, §3, §4, §5, §6, §7, §8

NCI-H209 cells = test: CellTiter-Glo cell viability, NCI-H209; assay type: cell-based; details: 72 h; for GI50: read-out: Absolute GI50; for IC50: read-out: Absolute IC50
Protocol: as §1, §2, §3, §4, §5, §6, §7, §8

SK-MEL-28 cells = test: CellTiter-Glo cell viability, SK-MEL-28; assay type: cell-based; details: 72 h; for GI50: read-out: Absolute GI50; for IC50: read-out: Absolute IC50
Protocol: as §1, §2, §3, §4, §5, §6, §7, §8

22Rv1 cells = test: CellTiter-Glo cell viability, 22Rv1; assay type: cell-based; details: 72 h; for GI50: read-out: Absolute GI50; for IC50: read-out: Absolute IC50
Protocol: as §1, §2, §3, §4, §5, §6, §7, §8

NCI-N87 cells = test: CellTiter-Glo cell viability, NCI-N87; assay type: cell-based; details: 72 h; for GI50: read-out: Absolute GI50; for IC50: read-out: Absolute IC50
Protocol: as §1, §2, §3, §4, §5, §6, §7, §8

[1] = Pharmacokinetic properties after IV and PO administration; assay type: in vivo
[2] = test system: GL261 cells, sub-cutaneous; test: Re-challenge of long-term survivors with sub-cutaneous GL261 cells; assay type: in vivo, C57BL/6 mice; details: long term survival (LTS) mice after Compound 121 oral therapy, not treated in re-challenge phase
Protocol: The anti-tumor activity of Compound 121, as a single agent, was studied in the GL261 murine model of human glioblastoma. Murine GL261 glioblastoma cells were injected intra-cranially into syngeneic, immune-competent hosts (C57BL/6). In order for oral therapeutics to be effective, it is required that the therapeutic be able to cross the blood-brain barrier in order to achieve sufficient levels in the brain to exert an anti-tumor effect. Survival was the major endpoint for the study. The mice either succumbed to the tumor or were euthanized based on severity of tumor-dependent morbidity. Mice that achieved long-term survival (>80 days) were re-challenged with a sub-cutaneous injection of GL261 cells to assess the development of a durable immune response to GL261. Mice that underwent the re-challenge phase were not treated with Compound 121.
Re-challenge phase: Mice surviving past 80 days were injected with GL261 cell subcutaneously on Day 93. A control group (naïve C57BL/6 mice, N=5) were also injected with GL261 cells subcutaneously. Tumor volumes were calculated from bidimensional caliper measurements every 3 to 4 days. Further, all mice were administered oral doses of a Bifidobacterium mixture on three separate occasions. The objective of the administration of Bifidobacterium was to transiently modify the intestinal microbiome as a means to influence the immune response to GL261. […]

[3] = top conc. 10 μM Compound 121, 100 μM cisplatin
[4] = in vivo, IV Administration (5 mg/kg)
[5] = Homo sapiens, top conc. 10 μM Compound 121, 100 μM cisplatin

N.N.[Cl][Pt][Cl] [Cisplatin, reference compound]
GI50 (TJ905 cells): 6560 nM
IC50 (TJ905 cells): 9850 nM
% inhibition at top conc. (TJ905 cells; [3]): 80.57%
GI50 (JEG-3 cells): 5500 nM
IC50 (JEG-3 cells): 9400 nM
% inhibition at top conc. (JEG-3 cells; [3]): 99.90%
GI50 (JHH-5 cells): 1970 nM
IC50 (JHH-5 cells): 2270 nM
% inhibition at top conc. (JHH-5 cells; [3]): 87.18%
GI50 (SK-OV-3 cells): 5080 nM
IC50 (SK-OV-3 cells): 6690 nM
% inhibition at top conc. (SK-OV-3 cells; [3]): 81.79%
GI50 (NCI-H209 cells): 140 nM
IC50 (NCI-H209 cells): 230 nM
% inhibition at top conc. (NCI-H209 cells; [3]): 98.81%
GI50 (SK-MEL-28 cells): 7090 nM
IC50 (SK-MEL-28 cells): 8900 nM
% inhibition at top conc. (SK-MEL-28 cells; [3]): 99.29%
GI50 (22Rv1 cells): 1880 nM
IC50 (22Rv1 cells): 3070 nM
% inhibition at top conc. (22Rv1 cells; [3]): 98.28%
GI50 (NCI-N87 cells): 880 nM
IC50 (NCI-N87 cells): 2260 nM
% inhibition at top conc. (NCI-N87 cells; [3]): 90.08%

Cc1cc(N2CCOC[C@@H]2C)ccc1-c1ccc(CC(=O)NCc2ccc(F)cc2)nc1 [Compound 121]
AUCIV (dose-normalized) ([1]; IV Administration (5 mg/kg)): 575 kg·ng·h/mL/mg
t0.5 ([1]; IV Administration (5 mg/kg)): 0.959 h
F (%) = 100 × AUCpo/AUCIV ([1]; PO 20 mg/kg vs IV 5 mg/kg): 34.8%
AUCPO (dose-normalized) ([1]; PO Administration (20 mg/kg)): 199 kg·ng·h/mL/mg
C0 [1, 4]: 2850 ng/mL
clearance [1, 4]: 29 mL/min/kg
Vd ([1]; in vivo, IV Administration (5 mg/kg), read-out: Vss): 2.24 L/kg
Cmax ([1]; in vivo, PO Administration (20 mg/kg)): 2170 ng/mL
GI50 (TJ905 cells): 4 nM
IC50 (TJ905 cells): 4 nM
inhibition at 10 µM (TJ905 cells; [3]): 70%
GI50 (JEG-3 cells; Homo sapiens): 8 nM
IC50 (JEG-3 cells; Homo sapiens): 9 nM
inhibition at 10 µM (JEG-3 cells; [5]): 86.5%
GI50 (JHH-5 cells): 7 nM
IC50 (JHH-5 cells): 7 nM
inhibition at 10 µM (JHH-5 cells; [3]): 80.5%
GI50 (SK-OV-3 cells; Homo sapiens): 4 nM
IC50 (SK-OV-3 cells; Homo sapiens): 4 nM
inhibition at 10 µM (SK-OV-3 cells; [5]): 66.2%
GI50 (NCI-H209 cells; Homo sapiens): 17 nM
IC50 (NCI-H209 cells; Homo sapiens): 20 nM
inhibition at 10 µM (NCI-H209 cells; [5]): 73.7%
GI50 (SK-MEL-28 cells; Homo sapiens): 4 nM
IC50 (SK-MEL-28 cells; Homo sapiens): > 10000 nM
inhibition at 10 µM (SK-MEL-28 cells; [5]): 52.9%
GI50 (22Rv1 cells; Homo sapiens): 5 nM
IC50 (22Rv1 cells; Homo sapiens): 6 nM
inhibition at 10 µM (22Rv1 cells; [5]): 89%
GI50 (NCI-N87 cells; Homo sapiens): 4 nM
IC50 (NCI-N87 cells; Homo sapiens): 4 nM
inhibition at 10 µM (NCI-N87 cells; [5]): 49.6%
Tumor growth after sub-cutaneous re-challenge with GL261 cells [2]: Tumors failed to grow in both LTS mice
